Measurements taken from patent US20230406883A1, “COMPOUNDS AND THEIR USE IN TREATMENT OF TACHYKININ RECEPTOR MEDIATED DISORDERS” (Embark Biotech ApS, priority 2020, published 2023).
“And” between values parts separate entries of the source, which are not always exact repeats. Equal values may be shown once. Read-outs that look alike come from different tables or passages of the source. Numbered stars: 1 amine (or outer) side, 2 acyl side, 3 side chain; on linkers, the order of the positions; unused ones are H or OH. Square brackets hold non-standard residues; d marks the D form. Peptide text beside a SMILES is read from it. * marks the point of attachment. C18 diacid = O=C(O)CCCCCCCCCCCCCCCCC(=O)*; γGlu = O=C(O)[C@H](CCC(=O)[*:2])N[*:1]; NMeL = CN[C@@H](CC(C)C)C(=O)O; hSer = N[C@@H](CCO)C(=O)O; Nle = CCCC[C@H](N)C(=O)O; AEEA = NCCOCCOCC(=O)O

Assays:
hNK2R [1] = target: T1, hNK2R (Homo sapiens, UniProt P21452); experiment: 3H-NKA competitive binding on transfected COS-7 cells; conditions: competition with 3H-NKA, 4 h at 4 C
T1 construct: host or cells: COS-7
T1 sequence (P21452 1-398): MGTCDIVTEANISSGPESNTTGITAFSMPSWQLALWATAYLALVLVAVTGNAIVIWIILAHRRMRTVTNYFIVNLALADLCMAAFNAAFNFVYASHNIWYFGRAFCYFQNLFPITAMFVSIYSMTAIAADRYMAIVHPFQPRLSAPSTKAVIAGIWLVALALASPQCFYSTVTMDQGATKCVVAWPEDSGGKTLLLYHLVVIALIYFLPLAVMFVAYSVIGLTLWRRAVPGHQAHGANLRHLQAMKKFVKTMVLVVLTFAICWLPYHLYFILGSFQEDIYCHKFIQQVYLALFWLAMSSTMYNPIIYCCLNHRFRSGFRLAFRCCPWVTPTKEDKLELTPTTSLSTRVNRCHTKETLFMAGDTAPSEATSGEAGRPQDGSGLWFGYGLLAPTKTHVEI
Description: Assays were carried out using COS-7 cells transiently transfected by calcium phosphate transfection with a vector pcDNA3.1(+) encoding one of the indicated receptors (Genscript). Briefly, DNA mixed with CaCl2 (2 M) and TE-buffer (10 mM Tris-HCl, 1 mM EDTA, pH 7.5) was dropwise added to 2×HBS (50 mM HEPES, 280 mM NaCl, 1.5 mM NaH2PO4, pH 7.2) and incubated for 45 min at room temperature (22±2° C.). The mixture and a final concentration of 100 μM Chloroquine were added to the cells and left to incubate for 5 hours at 37° C. under standard cell culture conditions (10% CO2) before changing medium to fresh maintenance medium.
The ^3H-NKA binding assay measures peptide-receptor binding by a competitive principle of receptor binding between radioactively labelled (3H) NKA (tracer) and synthesized peptide ligands on live cells expressing the receptor of interest. Assay solutions used: TKR buffer (50 mM Tris/HCl pH 7.5, 5 mM MnCl2, and 150 mM NaCl), wash buffer (TKR buffer+0.2% w/v OvAlb), binding buffer (wash buffer+0.1 mg/ml Bacitracin), and tracer solution (binding buffer+˜15000 cpm/well ^3H-tracer). The assay was performed on ice the day after transfection.
Briefly, maintenance medium was aspirated, and plates were washed ×1 in cold wash buffer before adding 100 μl cold binding buffer and placing at 4° C. to let plates cool. The cold plates were added indicated peptides (ligand) immediately followed by addition of cold tracer solution (˜15000 cpm/well). Plates were immediately moved to 4° C. and incubated for 4 hours. After incubation, binding was stopped by wash ×2 with cold wash buffer before adding 225 μl Ultima Gold XR. Plates were shaken at medium speed for approximately 30 min and left overnight at room temperature before counting the plates in a MicroBeta plate counter (Perkin Elmer).

hNK1R = target: T2, hNK1R (Homo sapiens, UniProt P25103); experiment: IP3 assay (inositol trisphosphate, 3H-myoinositol) in transiently transfected COS-7 cells; assay type: cell-based; conditions: for EC50: 0.2% ovalbumin buffer
T2 construct: host or cells: COS-7
T2 sequence (P25103 whole entry): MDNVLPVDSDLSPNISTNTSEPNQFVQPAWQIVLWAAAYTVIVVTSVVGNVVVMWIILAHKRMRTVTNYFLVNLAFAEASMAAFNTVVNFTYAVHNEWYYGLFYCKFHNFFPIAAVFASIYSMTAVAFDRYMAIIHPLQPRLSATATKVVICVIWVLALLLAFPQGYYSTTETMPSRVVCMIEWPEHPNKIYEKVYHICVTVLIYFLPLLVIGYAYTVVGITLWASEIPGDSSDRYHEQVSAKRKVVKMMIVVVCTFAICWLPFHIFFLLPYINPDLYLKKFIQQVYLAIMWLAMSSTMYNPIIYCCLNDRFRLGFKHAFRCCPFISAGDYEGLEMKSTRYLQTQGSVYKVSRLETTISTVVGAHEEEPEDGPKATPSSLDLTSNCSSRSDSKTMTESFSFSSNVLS
In short: (§1)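 COS-7 cells were transiently transfected with receptor plasmid and labelled with ³H-myo-inositol. Cells were lysed in formic acid, and ³H-inositol phosphates were captured on SPA YSI beads and counted.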

hNK3R = target: T3, hNK3R (Homo sapiens, UniProt P29371); experiment: as above; assay type: cell-based; conditions: for EC50: 0.2% ovalbumin buffer, read-out: hNK3, IP3 EC50
T3 construct: host or cells: COS-7
T3 sequence (P29371 1-465): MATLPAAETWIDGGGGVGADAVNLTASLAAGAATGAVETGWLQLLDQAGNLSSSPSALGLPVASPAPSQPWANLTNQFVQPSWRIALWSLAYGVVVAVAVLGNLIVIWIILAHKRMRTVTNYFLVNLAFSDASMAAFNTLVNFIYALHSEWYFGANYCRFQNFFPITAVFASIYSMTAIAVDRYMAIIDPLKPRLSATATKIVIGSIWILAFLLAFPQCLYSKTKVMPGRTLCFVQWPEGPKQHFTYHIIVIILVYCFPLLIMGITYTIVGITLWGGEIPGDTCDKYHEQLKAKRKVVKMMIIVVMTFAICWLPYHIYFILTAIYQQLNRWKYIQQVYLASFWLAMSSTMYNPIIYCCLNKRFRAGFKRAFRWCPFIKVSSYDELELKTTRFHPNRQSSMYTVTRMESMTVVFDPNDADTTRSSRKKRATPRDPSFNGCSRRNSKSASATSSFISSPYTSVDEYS
In short: as §1

hNK2R [2] = target: T1, hNK2R; experiment: as above; assay type: cell-based; conditions: COS-7 cells; for EC50: 0.2% ovalbumin buffer; for hNK2R, IP3 Efficacy: figure legends: percent of 10^-6 M NKA
In short: as §1

[3] = COS-7 cells, figure legends: percent of 10^-6 M NKA

With `CCCC[C@H](NC(=O)[C@H](CC(C)C)N(C)C(=O)CNC(=O)[C@@H](NC(=O)[C@H](Cc1ccc(O)cc1)NC(=O)[C@H](CCCCN)NC(=O)[C@H](CC(=O)O)NC(=O)COCCOCCNC(=O)COCCOCCNC(=O)CC[C@H](NC(=O)CCCCCCCCCCCCCCCCC(=O)O)C(=O)O)C(C)C)C(N)=O` [compound 305, *Asp;Lys;Tyr;Val;Gly;NmLeu;Nle;NH2] ({C18 diacid-γGlu-AEEA-AEEA}-DKYVG[NMeL][Nle]-NH2) the EC50 (hNK2R [1]) was 21 nM and 210 nM and ~100 nM, the “hNK1R, IP3 Efficacy” value (hNK1R) was 17-50% and the EC50 (hNK1R; COS-7 cells) was 520 nM and 450 to 3500 nM. For the same compound, the “hNK1R, IP3 Efficacy” value (hNK1R; [3]) was 30% and ~30%, the EC50 (hNK3R; COS-7 cells) was ~730 nM and ~720 nM and the EC50 (hNK2R [2]) was 3.7 nM and 4 nM and 2.2 to 13 nM.

In the case of `COCC[C@H](NC(=O)[C@H](CC(C)C)N(C)C(=O)CNC(=O)[C@@H](NC(=O)[C@H](Cc1ccc(O)cc1)NC(=O)[C@H](CCCCN)NC(=O)[C@H](CC(=O)O)NC(=O)COCCOCCNC(=O)COCCOCCNC(=O)CC[C@H](NC(=O)CCCCCCCCCCCCCCCCC(=O)O)C(=O)O)C(C)C)C(N)=O` [compound 344, *Asp;Lys;Tyr;Val;Gly;NmLeu;Metox;NH2] ({C18 diacid-γGlu-AEEA-AEEA}-DKYVG[NMeL][hSer](Me)-NH2), the EC50 (hNK2R [1]) is reported as 94 nM and 90 nM, the EC50 (hNK1R; COS-7 cells) is reported as about 160 nM and the “hNK1R, IP3 Efficacy” value (hNK1R; [3]) is reported as 30% and 50% and ~30%. The EC50 (hNK2R [2]) was 2.2 nM and 3.1 nM and 5 nM and 3.2 nM and the “hNK2R, IP3 Efficacy” value (hNK2R [2]) was 90% and 100% and 110%.

`COCC[C@H](NC(=O)[C@H](CC(C)C)N(C)C(=O)CNC(=O)[C@@H](NC(=O)[C@H](Cc1ccccc1)NC(=O)[C@H](CCCCN)NC(=O)[C@H](CC(=O)O)NC(=O)COCCOCCNC(=O)COCCOCCNC(=O)CC[C@H](NC(=O)CCCCCCCCCCCCCCCCC(=O)O)C(=O)O)[C@@H](C)O)C(N)=O` [compound 383, *Asp;Lys;Phe;Thr;Gly;NmLeu;Metox;NH2] ({C18 diacid-γGlu-AEEA-AEEA}-DKFTG[NMeL][hSer](Me)-NH2) was tested, and the EC50 (hNK2R [1]) was 11 nM, the EC50 (hNK1R; COS-7 cells) was 290 nM and the “hNK1R, IP3 Efficacy” value (hNK1R; [3]) was 50%. For the same compound, the EC50 (hNK3R; COS-7 cells) was 313 nM, the “hNK3, IP3 Efficacy” value (hNK3R; [3]) was 60% and the EC50 (hNK2R [2]) was 1.6 nM. For the same compound, the “hNK2R, IP3 Efficacy” value (hNK2R [2]) was 95%.

In the case of `CCCC[C@H](NC(=O)[C@H](CC(C)C)N(C)C(=O)CNC(=O)[C@@H](NC(=O)[C@H](Cc1ccccc1)NC(=O)[C@H](CCCCN)NC(=O)[C@H](CC(=O)O)NC(=O)COCCOCCNC(=O)COCCOCCNC(=O)CC[C@H](NC(=O)CCCCCCCCCCCCCCCCC(=O)O)C(=O)O)C(C)C)C(N)=O` [compound 304, *Asp;Lys;Phe;Val;Gly;NmLeu;Nle;NH2], the EC50 (hNK2R [1]) is reported as 25 nM, the EC50 (hNK1R; COS-7 cells) is reported as 34 nM and 40 nM and 12 to 250 nM and the “hNK1R, IP3 Efficacy” value (hNK1R; [3]) is reported as 80% and 80-85%. The “hNK3, IP3 Efficacy” value (hNK3R) was 100%, the EC50 (hNK3R; COS-7 cells) was 66 nM and 65 nM and 60 to 7000 nM and the “hNK3, IP3 Efficacy” value (hNK3R; [3]) was 65% and 60% and 85-100%. For the same compound, the EC50 (hNK2R [2]) was 2.1 nM and 1 to 11 nM and the “hNK2R, IP3 Efficacy” value (hNK2R [2]) was 90% and 100% and 80-90%.
